# Results published in ChEMBL document CHEMBL1151989, “Antineoplastic agents. 578. Synthesis of stilstatins 1 and 2 and their water-soluble prodrugs” (J Nat Prod, 2009).
# System: BXPC-3
# Experiment: Antitumor activity against human BxPC3 cells by sulforhodamine B assay
# Format: functional
row,Compound,GI50 [µg/mL]
1,"Manganese Stilstatin 2 2',3,3'-O-Triphosphate",> 10
2,COc1cc(/C=C\c2ccc(OC)c(OP(=O)([O-])[O-])c2OP(=O)([O-])[O-])cc(OP(=O)([O-])[O-])c1OC.[K+].[K+].[K+].[K+].[K+].[K+],0.75
3,COc1ccc(/C=C\c2cc(OC)c3c(c2)OCO3)cc1O [Combretastatin A-2],0.014
4,COc1ccc(/C=C\c2cc(OC)c3c(c2)OCO3)cc1OP(=O)([O-])[O-].[Na+].[Na+],2.1
5,COc1cc(/C=C\c2ccc(OC)c(OP(=O)([O-])[O-])c2OP(=O)([O-])[O-])cc(OP(=O)([O-])[O-])c1OC.[Na+].[Na+].[Na+].[Na+].[Na+].[Na+],1.2
6,COc1cc(/C=C\c2ccc(OC)c(O[Si](C)(C)C(C)(C)C)c2O[Si](C)(C)C(C)(C)C)cc(O[Si](C)(C)C(C)(C)C)c1OC,> 10
7,COc1ccc(/C=C\c2cc(O)c(OC)c(OC)c2)c(O)c1O [STILSTATIN 2],1.8
8,COc1cc(/C=C\c2ccc(OC)c(OP(=O)([O-])[O-])c2OP(=O)([O-])[O-])cc(OP(=O)([O-])[O-])c1OC.[Ca+2].[Ca+2].[Ca+2],3.6

# The remaining lines, values ahead:
row,GI50 [µg/mL],Compound
1,4.4,COc1ccc(/C=C\c2cc(OC)c(OC)c(OC)c2)c(O)c1O [COMBRETASTATIN A-1]
2,0.39,COc1ccc(/C=C\c2cc(OC)c(OC)c(OC)c2)cc1O [COMBRETASTATIN A4]

# System: MCF7
# Experiment: Antitumor activity against human MCF7 cells by sulforhodamine B assay
# Format: functional
row,Compound,GI50 [µg/mL]
1,"Manganese Stilstatin 2 2',3,3'-O-Triphosphate",> 10
2,COc1cc(/C=C\c2ccc(OC)c(OP(=O)([O-])[O-])c2OP(=O)([O-])[O-])cc(OP(=O)([O-])[O-])c1OC.[K+].[K+].[K+].[K+].[K+].[K+],0.15
3,COc1ccc(/C=C\c2cc(OC)c3c(c2)OCO3)cc1O [Combretastatin A-2],0.0042
4,COc1ccc(/C=C\c2cc(OC)c3c(c2)OCO3)cc1OP(=O)([O-])[O-].[Na+].[Na+],0.045
5,COc1cc(/C=C\c2ccc(OC)c(OP(=O)([O-])[O-])c2OP(=O)([O-])[O-])cc(OP(=O)([O-])[O-])c1OC.[Na+].[Na+].[Na+].[Na+].[Na+].[Na+],0.3
6,COc1cc(/C=C\c2ccc(OC)c(O[Si](C)(C)C(C)(C)C)c2O[Si](C)(C)C(C)(C)C)cc(O[Si](C)(C)C(C)(C)C)c1OC,> 10
7,COc1ccc(/C=C\c2cc(O)c(OC)c(OC)c2)c(O)c1O [STILSTATIN 2],1.6
8,COc1cc(/C=C\c2ccc(OC)c(OP(=O)([O-])[O-])c2OP(=O)([O-])[O-])cc(OP(=O)([O-])[O-])c1OC.[Ca+2].[Ca+2].[Ca+2],0.38

# System: SF-268
# Experiment: Antitumor activity against human SF268 cells by sulforhodamine B assay
# Format: functional
row,Compound,GI50 [µg/mL]
1,"Manganese Stilstatin 2 2',3,3'-O-Triphosphate",3.6
2,COc1cc(/C=C\c2ccc(OC)c(OP(=O)([O-])[O-])c2OP(=O)([O-])[O-])cc(OP(=O)([O-])[O-])c1OC.[K+].[K+].[K+].[K+].[K+].[K+],0.3
3,COc1cc(/C=C\c2ccc(OC)c(OP(=O)([O-])[O-])c2OP(=O)([O-])[O-])cc(OP(=O)([O-])[O-])c1OC.[Na+].[Na+].[Na+].[Na+].[Na+].[Na+],0.34
4,COc1cc(/C=C\c2ccc(OC)c(O[Si](C)(C)C(C)(C)C)c2O[Si](C)(C)C(C)(C)C)cc(O[Si](C)(C)C(C)(C)C)c1OC,> 10
5,COc1ccc(/C=C\c2cc(O)c(OC)c(OC)c2)c(O)c1O [STILSTATIN 2],1.6
6,COc1cc(/C=C\c2ccc(OC)c(OP(=O)([O-])[O-])c2OP(=O)([O-])[O-])cc(OP(=O)([O-])[O-])c1OC.[Ca+2].[Ca+2].[Ca+2],0.46

# System: NCI-H460
# Experiment: Antitumor activity against human NCI-H460 cells by sulforhodamine B assay
# Format: functional
row,Compound,GI50 [µg/mL]
1,"Manganese Stilstatin 2 2',3,3'-O-Triphosphate",0.51
2,COc1cc(/C=C\c2ccc(OC)c(OP(=O)([O-])[O-])c2OP(=O)([O-])[O-])cc(OP(=O)([O-])[O-])c1OC.[K+].[K+].[K+].[K+].[K+].[K+],0.3
3,COc1ccc(/C=C\c2cc(OC)c3c(c2)OCO3)cc1O [Combretastatin A-2],0.043
4,COc1ccc(/C=C\c2cc(OC)c3c(c2)OCO3)cc1OP(=O)([O-])[O-].[Na+].[Na+],0.41
5,COc1cc(/C=C\c2ccc(OC)c(OP(=O)([O-])[O-])c2OP(=O)([O-])[O-])cc(OP(=O)([O-])[O-])c1OC.[Na+].[Na+].[Na+].[Na+].[Na+].[Na+],0.3
6,COc1cc(/C=C\c2ccc(OC)c(O[Si](C)(C)C(C)(C)C)c2O[Si](C)(C)C(C)(C)C)cc(O[Si](C)(C)C(C)(C)C)c1OC,> 10
7,COc1ccc(/C=C\c2cc(O)c(OC)c(OC)c2)c(O)c1O [STILSTATIN 2],1.5
8,COc1cc(/C=C\c2ccc(OC)c(OP(=O)([O-])[O-])c2OP(=O)([O-])[O-])cc(OP(=O)([O-])[O-])c1OC.[Ca+2].[Ca+2].[Ca+2],0.35

# The remaining lines, values ahead:
row,GI50 [µg/mL],Compound
1,0.74,COc1ccc(/C=C\c2cc(OC)c(OC)c(OC)c2)c(O)c1O [COMBRETASTATIN A-1]
2,0.0006,COc1ccc(/C=C\c2cc(OC)c(OC)c(OC)c2)cc1O [COMBRETASTATIN A4]

# System: KM-20L2
# Experiment: Antitumor activity against human KM20L2 cells by sulforhodamine B assay
# Format: functional
row,Compound,GI50 [µg/mL]
1,"Manganese Stilstatin 2 2',3,3'-O-Triphosphate",> 10
2,COc1cc(/C=C\c2ccc(OC)c(OP(=O)([O-])[O-])c2OP(=O)([O-])[O-])cc(OP(=O)([O-])[O-])c1OC.[K+].[K+].[K+].[K+].[K+].[K+],2.9
3,COc1ccc(/C=C\c2cc(OC)c3c(c2)OCO3)cc1O [Combretastatin A-2],0.47
4,COc1ccc(/C=C\c2cc(OC)c3c(c2)OCO3)cc1OP(=O)([O-])[O-].[Na+].[Na+],3.8
5,COc1cc(/C=C\c2ccc(OC)c(OP(=O)([O-])[O-])c2OP(=O)([O-])[O-])cc(OP(=O)([O-])[O-])c1OC.[Na+].[Na+].[Na+].[Na+].[Na+].[Na+],3.1
6,COc1cc(/C=C\c2ccc(OC)c(O[Si](C)(C)C(C)(C)C)c2O[Si](C)(C)C(C)(C)C)cc(O[Si](C)(C)C(C)(C)C)c1OC,> 10
7,COc1ccc(/C=C\c2cc(OC)c(OC)c(OC)c2)cc1O [COMBRETASTATIN A4],0.34
8,COc1ccc(/C=C\c2cc(O)c(OC)c(OC)c2)c(O)c1O [STILSTATIN 2],1.9
9,COc1cc(/C=C\c2ccc(OC)c(OP(=O)([O-])[O-])c2OP(=O)([O-])[O-])cc(OP(=O)([O-])[O-])c1OC.[Ca+2].[Ca+2].[Ca+2],5.2

# System: DU-145
# Experiment: Antitumor activity against human DU145 cells by sulforhodamine B assay
# Format: functional
row,Compound,GI50 [µg/mL]
1,"Manganese Stilstatin 2 2',3,3'-O-Triphosphate",> 10
2,COc1cc(/C=C\c2ccc(OC)c(OP(=O)([O-])[O-])c2OP(=O)([O-])[O-])cc(OP(=O)([O-])[O-])c1OC.[K+].[K+].[K+].[K+].[K+].[K+],0.22
3,COc1ccc(/C=C\c2cc(OC)c3c(c2)OCO3)cc1O [Combretastatin A-2],0.0054
4,COc1ccc(/C=C\c2cc(OC)c3c(c2)OCO3)cc1OP(=O)([O-])[O-].[Na+].[Na+],0.053
5,COc1cc(/C=C\c2ccc(OC)c(OP(=O)([O-])[O-])c2OP(=O)([O-])[O-])cc(OP(=O)([O-])[O-])c1OC.[Na+].[Na+].[Na+].[Na+].[Na+].[Na+],0.26
6,COc1cc(/C=C\c2ccc(OC)c(O[Si](C)(C)C(C)(C)C)c2O[Si](C)(C)C(C)(C)C)cc(O[Si](C)(C)C(C)(C)C)c1OC,> 10
7,COc1ccc(/C=C\c2cc(O)c(OC)c(OC)c2)c(O)c1O [STILSTATIN 2],1.8
8,COc1cc(/C=C\c2ccc(OC)c(OP(=O)([O-])[O-])c2OP(=O)([O-])[O-])cc(OP(=O)([O-])[O-])c1OC.[Ca+2].[Ca+2].[Ca+2],0.37

# Second part, the compound after the results:
row,GI50 [µg/mL],Compound
1,0.17,COc1ccc(/C=C\c2cc(OC)c(OC)c(OC)c2)c(O)c1O [COMBRETASTATIN A-1]
2,0.0008,COc1ccc(/C=C\c2cc(OC)c(OC)c(OC)c2)cc1O [COMBRETASTATIN A4]

# System: KAT-4
# Experiment: Antitumor activity against human KAT4 cells by sulforhodamine B assay
# Format: functional
row,Compound,GI50 [µg/mL]
1,"Manganese Stilstatin 2 2',3,3'-O-Triphosphate",> 10

# System: SW-1736
# Experiment: Antitumor activity against human SW1736 cells by sulforhodamine B assay
# Format: functional
row,Compound,GI50 [µg/mL]
1,"Manganese Stilstatin 2 2',3,3'-O-Triphosphate",1.7

# System: P388
# Experiment: In vitro growth inhibition against mouse P388 cells
row,Compound,ED50 [µg/mL]
1,COc1cc(/C=C\c2ccc(OC)c(OP(=O)([O-])[O-])c2OP(=O)([O-])[O-])cc(OP(=O)([O-])[O-])c1OC.[K+].[K+].[K+].[K+].[K+].[K+],0.12
2,COc1ccc(/C=C\c2cc(OC)c3c(c2)OCO3)cc1O [Combretastatin A-2],0.016
3,COc1ccc(/C=C\c2cc(OC)c(OC)c(OC)c2)c(O)c1O [COMBRETASTATIN A-1],0.3
4,COc1ccc(/C=C\c2cc(OC)c3c(c2)OCO3)cc1OP(=O)([O-])[O-].[Na+].[Na+],0.025
5,COc1cc(/C=C\c2ccc(OC)c(OP(=O)([O-])[O-])c2OP(=O)([O-])[O-])cc(OP(=O)([O-])[O-])c1OC.[Na+].[Na+].[Na+].[Na+].[Na+].[Na+],0.14
6,COc1cc(/C=C\c2ccc(OC)c(O[Si](C)(C)C(C)(C)C)c2O[Si](C)(C)C(C)(C)C)cc(O[Si](C)(C)C(C)(C)C)c1OC,>100
7,COc1ccc(/C=C\c2cc(OC)c(OC)c(OC)c2)cc1O [COMBRETASTATIN A4],0.0009
8,COc1ccc(/C=C\c2cc(O)c(OC)c(OC)c2)c(O)c1O [STILSTATIN 2],1.7
9,COc1cc(/C=C\c2ccc(OC)c(OP(=O)([O-])[O-])c2OP(=O)([O-])[O-])cc(OP(=O)([O-])[O-])c1OC.[Ca+2].[Ca+2].[Ca+2],0.14
